This is an account of results in BindingDB's records for doi:10.1016/0960-894X(96)00438-6 (1996).

What is called IC50 is the midpoint of a concentration-inhibition curve. Lower therefore signals inhibition by little substance.

This test can be described thus: In vitro inhibition of thrombin-induced human gel-filtered platelet aggregation.

Molecule `O=C(NCCc1nnn[nH]1)C1CCCN(C(=O)CCC2CCNCC2)C1` (stereo not given) [1-(3-Piperidin-4-yl-propionyl)-piperidine-3-carboxylic acid [2-(1H-tetrazol-5-yl)-ethyl]-amide] had a concentration for half-maximal inhibition (IC50) of 40000 nM.
As for `O=C(O)C(O)CNC(=O)[C@@H]1CCCN(C(=O)CCC2CCNCC2)C1` (stereo partly drawn) [2-Hydroxy-3-{[(R)-1-(3-piperidin-4-yl-propionyl)-piperidine-3-carbonyl]-amino}-propionic acid], the figure is 800 nM; as for `CC(CNC(=O)C1CCCN(C(=O)CCC2CCNCC2)C1)C(=O)O` (stereo not given) [2-Methyl-3-{[1-(3-piperidin-4-yl-propionyl)-piperidine-3-carbonyl]-amino}-propionic acid], greater than 10000 nM.
Then `COC(=O)C(CC(=O)O)NC(=O)C1CCCN(C(=O)CCC2CCNCC2)C1` (stereo not given) [2-{[1-(3-Piperidin-4-yl-propionyl)-piperidine-3-carbonyl]-amino}-succinic acid 1-methyl ester], with 1000 nM; and `O=C(O)CCNC(=O)C1CCCN(C(=O)OCC2CCNCC2)C1` (stereo not given) [3-(2-Carboxy-ethylcarbamoyl)-piperidine-1-carboxylic acid piperidin-4-ylmethyl ester], with 5000 nM; and `CN(CCC(=O)O)C(=O)C1CCCN(C(=O)CCC2CCNCC2)C1` (stereo not given) [3-{Methyl-[1-(3-piperidin-4-yl-propionyl)-piperidine-3-carbonyl]-amino}-propionic acid], with 28000 nM.
As for `O=C(O)C1CCCC(NC(=O)C2CCCN(C(=O)CCC3CCNCC3)C2)C1` (stereo not given) [3-{[1-(3-Piperidin-4-yl-propionyl)-piperidine-3-carbonyl]-amino}-cyclohexanecarboxylic acid], the figure is greater than 50000 nM; as for `O=C(O)C[C@H](NC(=O)[C@@H]1CCCN(C(=O)CCC2CCNCC2)C1)c1ccc2c(c1)OCO2` [(S)-3-Benzo[1,3]dioxol-5-yl-3-{[(R)-1-(3-piperidin-4-yl-propionyl)-piperidine-3-carbonyl]-amino}-propionic acid], 20 nM.
On to `O=C(O)C[C@H](NC(=O)[C@@H]1CCCN(C(=O)CCC2CCNCC2)C1)c1cccs1` [(S)-3-{[(R)-1-(3-Piperidin-4-yl-propionyl)-piperidine-3-carbonyl]-amino}-3-thiophen-2-yl-propionic acid], for which the IC50 is 90 nM.
Then `O=C(O)C[C@@H](C#Cc1ccccc1)NC(=O)[C@@H]1CCCN(C(=O)CCC2CCNCC2)C1` [(S)-5-Phenyl-3-{[(R)-1-(3-piperidin-4-yl-propionyl)-piperidine-3-carbonyl]-amino}-pent-4-ynoic acid], with 80 nM.
